The IC50 is the concentration at which inhibition is half-maximal.

Consider seven compounds from patent publication US20070185069A1, “Anti-angiogenic activity of 2-methoxyestradiol in combination with anti-cancer agents” (priority 2005, published 2007).

Molecules are shown by their SMILES. Several values for one entry are separate records, joined by “and”; a condition that tells them apart may be missing. Equal entries are not always repeated.

In data set [1] the test system is HUVEC. Description: HUVEC proliferation assay (BRDU). Type of data set: cell-based. The following applies: 48 hours after application of drug. The method, then: (§1) U87 MG human glioblastoma cells were maintained in vitro in DMEM supplemented with 5% FBS, 2 mM glutamine, 1 mM sodium pyruvate, MEM vitamins and NEAA at 37° C. and 5% CO2. HUVEC were maintained in M 200 media. For both HUVEC and U87 MG proliferation assays, cells were plated in a 96 well plate at 5×10^3 cells per well and incubated at 37° C. overnight. At 24 hours, the media was aspirated and 2ME2 was administered to the cells at the following doses: […]. Proliferation was assessed 48 hours after application of drug by WST-1(U87 MG) or BRDU (HUVEC).

In data set [2] the test system is U87 MG ectopic tumors. In words: Late stage U87 MG glioblastoma xenograft tumor model. Conditions: for %Δ (Percent change in tumor volume from start of treatment): U87MG model, Temodar, 2ME2 or both combined; for inhibition of tumor growth: study day 28, treatment begun at about 300 mm^3, 2ME2 400 mg/kg p.o., q.d., Temodar 42 mg/kg p.o., q.d.×5. Format: in vivo, mice. The method, then: In a second preclinical study the effectiveness of 2ME2 alone or in combination with Temodar® in the U87 MG glioblastoma xenograft tumor model was evaluated. Given the effectiveness of Temodar® at the maximally tolerated dose against 100 mm^3 tumor burden, we altered the treatment strategy such that treatment was initiated when mean tumor volume was approximately 300 mm^3. Cohorts of mice received treatment with either vehicle control, 2ME2 400 mg/kg p.o., q.d., Temodar® 42 mg/kg p.o., q.d×5, or 2ME2 400 mg/kg p.o., q.d. combined with Temodar® 42 mg/kg p.o., q.d.×5. Mice treated with the combination of 2ME2 and Temodar® received oral administration in the PM and AM, respectively.

The test system of data set [3] is U87 MG ectopic tumors. In words: Early stage U87 MG ectopic tumors, subcutaneous. The following applies: study day 30; for inhibition of tumor growth: treatment begun at about 100 mm^3. Format: in vivo, Balb/c SCID mice. How it is done:
To assess whether 2ME2 or Temodarg® (Schering Corp. Kenilworth, N.J.) impact tumor growth of U87 MG, we designed the following experiment. Male Balb/c SCID mice were injected subcutaneously with 1×10^6 U87 MG tumor cells.

Data set [4] is described as follows: in vivo. The method, then:
(§2) 2-methoxyestradiol (2ME2) is an endogenous metabolite of estradiol with antiproliferative, proapoptotic and antiangiogenic activity. […] A new formulation of 2ME2 with enhanced absorption, Panzem® NCD, is currently in clinical trials. In anticipation of Phase 2 clinical trials with Panzem® NCD, tests were conducted to assess its anti-tumor activity as either monotherapy or in combination with cytotoxic agents. In this preclinical study, the effectiveness of 2ME2 alone or with the antimetabolite, 5-Fluorouracil (5-FU) in the CT-26 syngeneic tumor model was evaluated. 5-FU is a well-recognized and commonly used antineoplastic agent used for treatment of colorectal cancer. […] Subsequent to these studies, male BALB/c mice were injected subcutaneously with 1×10^6 CT-26 cells. Starting 7 days after tumor cell inoculation when mean tumor volume was approximately 100 mm^3, cohorts of mice (n=5/group) began treatment with (a) vehicle alone; (b) 2ME@200mg/kg p.o. q.d.; (c) 5-FU 30mg/kg p.o. q.d.×5; (d) or a combination of 5-FU at 30 mg/kg p.o. q.d.×5 with 2ME2 at 50, 100, or 200 mg/kg p.o. q.d. […] Cohorts of mice receiving the combination of 5-FU and 2ME2 had oral administrations in the A.M. (5-FU) and the P.M. (2ME2).

In data set [5] the test system is LLC met. In words: LLC met tumor model. Conditions: 2ME2 or both combined. Format: in vivo.
Data set [6] has as its system CT-26 cells. In words: In vitro inhibition of proliferation of CT-26 cells. Format: cell-based. Conditions: preliminary in vitro studies.
Data set [7] has as its system H2122. In words: H2122 tumor model, MST. Type of data set: in vivo. The following applies: Paclitaxel, 2ME2 or both combined.
Data set [8] has as its target T1, estrogen receptor α (Homo sapiens, UniProt P03372).
T1 sequence (P03372 1-595): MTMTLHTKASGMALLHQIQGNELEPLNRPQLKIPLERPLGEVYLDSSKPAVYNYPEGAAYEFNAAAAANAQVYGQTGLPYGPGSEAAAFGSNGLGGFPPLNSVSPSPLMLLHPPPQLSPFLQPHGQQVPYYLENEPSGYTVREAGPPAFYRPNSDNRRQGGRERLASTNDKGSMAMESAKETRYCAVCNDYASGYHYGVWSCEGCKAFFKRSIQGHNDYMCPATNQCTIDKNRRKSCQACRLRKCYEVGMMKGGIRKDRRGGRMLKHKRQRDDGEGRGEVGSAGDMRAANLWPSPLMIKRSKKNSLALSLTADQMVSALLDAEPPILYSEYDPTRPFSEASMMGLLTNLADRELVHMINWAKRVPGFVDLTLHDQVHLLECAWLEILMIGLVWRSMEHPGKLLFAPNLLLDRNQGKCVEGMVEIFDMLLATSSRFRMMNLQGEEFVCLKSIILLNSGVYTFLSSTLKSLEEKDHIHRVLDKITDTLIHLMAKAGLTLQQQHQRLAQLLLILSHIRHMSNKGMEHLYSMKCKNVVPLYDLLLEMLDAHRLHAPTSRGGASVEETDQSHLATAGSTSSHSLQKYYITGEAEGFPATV
Conditions: LaVallee et al. 2002; cited from earlier work.

Data set [9] deals with CT-26 syngeneic colon carcinoma. Description: CT-26 syngeneic tumor model, subcutaneous. Format: in vivo, BALB/c mice. How it is done: as §2
Data set [10] relates to PC3. Description: PC3 tumor model, XRT combination. Type of data set: in vivo. Conditions: 2ME2 or both combined.
For data set [11], the system named is U87 MG human glioblastoma cells. Description: U87 MG proliferation assay (WST-1). Type of data set: cell-based. Conditions: U87 MG versus HUVEC. How it is done:
as §1

Data set [12] addresses estrogen receptor β (Homo sapiens, UniProt Q92731). The following applies: LaVallee et al. 2002; cited from earlier work.
In data set [13] the test system is RPMI-8226. Description: RPMI-8226 xenograft model of myeloma. The following applies: RPMI-8226 model; Velcade, 2ME2 or both combined. Format: in vivo.
In data set [14] the test system is U87MG. Description: U87MG tumor model, CPT-11 combination. Type of data set: in vivo. Conditions: CPT-11, 2ME2 or both combined.
Data set [15] relates to vascular endothelial cell proliferation. Conditions: Ingber et al. 1990; cited from earlier work.
Data set [16] in a line: Separate tolerability study of Temodar. The arrangement: species or system mice. The following applies: mouse, in vivo, po, q.d.×5; read-out: maximally tolerated dose (MTD). How it is done:
Results: On study day 30, the mean tumor volume of the vehicle control animals was approximately 3000 mm^3. […] Using this dose and regimen in this model, Temodar® blocked U87 MG tumor growth by 98% (T/C =0.02).

Setting [17] is: CT-26 model (Table 1), 5-FU, 2ME2 or both combined.

Chain of estrogen receptor β (Q92731 whole entry): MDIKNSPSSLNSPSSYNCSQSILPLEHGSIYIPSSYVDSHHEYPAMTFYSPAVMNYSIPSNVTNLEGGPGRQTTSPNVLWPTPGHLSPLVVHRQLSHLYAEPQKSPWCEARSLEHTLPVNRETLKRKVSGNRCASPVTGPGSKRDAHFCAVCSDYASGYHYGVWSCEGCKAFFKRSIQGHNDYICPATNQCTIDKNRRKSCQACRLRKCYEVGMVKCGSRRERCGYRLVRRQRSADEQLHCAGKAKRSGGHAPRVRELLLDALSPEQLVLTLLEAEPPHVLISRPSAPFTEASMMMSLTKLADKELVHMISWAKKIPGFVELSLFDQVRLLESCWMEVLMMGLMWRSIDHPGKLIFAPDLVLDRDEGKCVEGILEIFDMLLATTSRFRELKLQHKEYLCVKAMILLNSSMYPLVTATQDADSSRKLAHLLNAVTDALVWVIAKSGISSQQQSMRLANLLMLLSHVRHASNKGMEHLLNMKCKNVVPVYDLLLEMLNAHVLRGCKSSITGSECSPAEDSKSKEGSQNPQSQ

Turning to `COc1cc2c(cc1O)CC[C@@H]1[C@@H]2CC[C@]2(C)[C@@H](O)CC[C@@H]12` [2ME2, 2-methoxyestradiol], the IC50 in [1] was determined as 463 nM; in [6], 3000 nM. Also, the “%Δ (Percent change in tumor volume from start of treatment)” value in data set [2] is 333%; in data set [14], 890%. The “inhibition of tumor growth” value in data set [2] is listed as 20%; in data set [3] (2ME2 200 mg/kg p.o., q.d.) it was “approximately 40%”; in [3] (2ME2 400 mg/kg p.o., q.d.) it was “approximately 40%”. Further, the T/C in [3] (2ME2 200 mg/kg p.o., q.d.) was 0.61; in data set [3] (2ME2 400 mg/kg p.o., q.d.), 0.61; in data set [5] (Cisplatin), 0.37; in data set [5] (Paclitaxel), 0.37; in [9] (setting [17]) it was 0.37; in [9] (study date 29, agent alone (2ME2 200 mg/kg p.o. q.d.; 5-FU 30 mg/kg p.o. q.d.×5)) it was 0.79 and 0.51. Also, the T/C in data set [13] came to 0.66. Also, the “mean changes in body weight as a consequence of treatment” value in data set [4] (CT-26 bearing BALB/c mice) is on record as “moderate to no change”. Moreover, the MST in [7] turned out to be 17 days. Further, the “affinity for estrogen receptor α” value in [8] was “low affinity”. Moreover, the “T − C (Difference in tumor doubling time)” value in [10] is 0 days. In addition, the “anti-proliferative dosage on glioblastoma cells relative to dosage with antiangiogenic effect on HUVEC” value in data set [11] is on record as “nearly five times”. In addition, the “affinity for estrogen receptor β” value in [12] is recorded as “low affinity”.
With `O=c1[nH]cc(F)c(=O)[nH]1` [5-FU, 5-Fluorouracil], the MTD at 5 days in data set [4] (male, mouse, in vivo, po) was 30 mg/kg. Further, the “mean changes in body weight as a consequence of treatment” value in [4] (mouse, in vivo) is “moderate to no change”. The T/C in [9] (setting [17]) is given as 0.38.
Consider `CO[C@@H]1[C@H](OC(=O)NC(=O)CCl)CC[C@]2(CO2)[C@H]1[C@@]1(C)O[C@@H]1CC=C(C)C` [AGM-1470], for which, in data set [15], the “half-maximal inhibition of vascular endothelial cell proliferation at lower concentration than tumor cell proliferation” value is 4 logs.
As to `N.N.[Cl][Pt][Cl]` [Cisplatin, reference compound], the T/C in [5] (Cisplatin) was found to be 0.19.
For `CC(=O)O[C@H]1C(=O)[C@@]2(C)[C@H]([C@H](OC(=O)c3ccccc3)[C@]3(O)C[C@H](OC(=O)[C@H](O)[C@@H](NC(=O)c4ccccc4)c4ccccc4)C(C)=C1C3(C)C)[C@]1(OC(C)=O)CO[C@@H]1C[C@@H]2O` [Paclitaxel, reference compound], in [5] (Paclitaxel), the T/C worked out at 0.38. Further, the MST in data set [7] is 24 days.
On to `Cn1nnc2c(C(N)=O)ncn2c1=O` [Temodar ®, reference compound], for which, in data set [2], the “%Δ (Percent change in tumor volume from start of treatment)” value is recorded as 266% and the “inhibition of tumor growth” value was found to be 34%. Besides, in [3] (Temodar 42 mg/kg p.o., q.d.×5), the T/C was found to be 0.02 and the “inhibition of tumor growth” value amounted to 98%. The MTD at 5 days in [16] was 42 mg/kg.
`CC(C)C[C@H](NC(=O)[C@H](Cc1ccccc1)NC(=O)c1cnccn1)B(O)O` [Velcade, reference compound]: the T/C in [13] was 0.64.
